The text below walks through data of US8629103B2, “Treatment of non-proliferative cystic disease of the breast” (New York University, priority 2010, dated 2014).

For test [1], the system named is IGF-I receptor, ERK, and AKT. The test is described as follows: Western blots of phosphorylation of IGF-I receptor, ERK and AKT in treated Brca1LoxP/Brca1LoxP mice. It is filed as in vivo. The settings on record: 4 month old Brca1LoxP/Brca1LoxP females; 7 days; PQ401 100 mg/kg thrice a week intraperitoneal; pasireotide 10 μg/kg/h by Alzet pump. Here is the method: Western blots showing that the increased phosphorylation of IGF-I receptor and its downstream mediators ERK and AKT in Brca1^LoxP/Brca1^LoxP females is reduced by treatment with 100 mg/kg PQ401 thrice a week and 10 μg/kg/h pasireotide. The two WT samples are from age-matched, untreated C57Bl/6 control mice. PQ401 was administered by intraperitoneal injections, pasireotide by Alzet pump Model 2001. For both drugs, the course of treatment was 7 days.
FIG. 6 depicts Western blots showing the effects of IGF-I inhibition on the phosphorylation of IGF-I receptor, ERK, and AKT in 4 month old Brca1^LoxP/Brca1^LoxP. The increased phosphorylation of IGF-I receptor and its downstream mediators ERK and AKT in Brca1^LoxP/Brca1^LoxP females is reduced by treatment with 100 mg/kg PQ401 thrice a week and 10 μg/kg/h pasireotide. The two WT samples are from age-matched, untreated C57Bl/6 control mice. PQ401 was administered by intraperitoneal injections, pasireotide by Alzet pump Model 2001. For both drugs, the course of treatment was 7 days.

For test [2], the system named is Brca1^LoxP/Brca1^LoxP mice. Kind of test: Mammary gland phenotype (whole mounts, hematoxylin-eosin sections, duct width, HANs) of treated Brca1LoxP/Brca1LoxP mice. The class given is in vivo. The settings on record: for mammary gland phenotype (whole mounts, histology): 7 days; for width of mammary gland ducts / ductal dilatation: 10 μg/kg/h for 7 days by Alzet pump, vs vehicle (water). On the procedure:
Representative whole mounts of mammary glands from 4 month old Brca1^LoxP/Brca1^LoxP females treated with water (upper photomicrographs) or 10 μg/kg/h pasireotide (lower photomicrographs) for 7 days. Both water and pasireotide were administered by Alzet pump Model 2001.
FIG. 8 depicts effects of pasireotide on the mammary gland phenotype of Brca1^LoxP/Brca1^LoxP mice. Representative hematoxylin-eosin sections of mammary glands from 4 month old Brca1^LoxP/Brca1^LoxP females treated with water (left) or pasireotide (center and right) for 7 days. Both water and pasireotide were administered by Alzet pump Model 2001. The dosage of pasireotide was 10 μg/kg/h.
FIG. 9 depicts effects of pasireotide on duct width of mammary glands of Brca1^LoxP/Brca1^LoxP mice. […] Both water and pasireotide were administered by Alzet pump Model 2001. Six animals were treated with pasireotide and five animals were treated with water (control). […]
The present inventor has made the surprising discovery that mice comprising loxP sites flanking exon 11 of the BRCA1 gene (formally known as Brca1^loxP/loxP, but also referred to herein as LoxP mice) display profoundly abnormal mammary gland development at an early age. LoxP mice were acquired from the National Institutes of Health Mouse Repository. The strain is Stock Brcal^tm2Cxd and the Strain code is 01XC8. Mice were maintained in accordance with the standards established by the Association for Assessment and Accreditation of Laboratory Animal Care (AAALAC) (New York University).
Representative whole mounts of mammary glands from 4 month old Brca1^LoxP/Brca1^LoxP females treated with water (upper photomicrographs) or 10 μg/kg/h pasireotide (lower photomicrographs) for 7 days are shown. Both water and pasireotide were administered by Alzet pump Model 2001. […] These findings were confirmed on a histological level as shown in FIG. 8 which depicts representative hematoxylin-eosin sections of mammary glands from 4 month old Brca1^LoxP/Brca1^LoxP females treated with water (left) or pasireotide (center and right) for 7 days. Both water and pasireotide (10 μg/kg/h) were administered by Alzet pump Model 2001. […] Both water and pasireotide were administered by Alzet pump Model 2001. […]

Test [3] relates to Ki67-positive epithelial cells in the mammary glands. The test is described as follows: Ki67 immunohistochemistry of mammary epithelial cells in treated Brca1LoxP/Brca1LoxP mice. The class given is in vivo. The settings on record: 4 month old Brca1LoxP/Brca1LoxP mice; 7 days of treatment; vs vehicle. An excerpt: The frequency of Ki67-positive mammary epithelial cells in C57Bl/6 controls treated with water (WT, water) is also presented. *, p<0.05 as compared with WT, water; **, p<0.01 as compared with WT, water; a, p<0.05 as compared with LoxP, water; b, p<0.01 as compared with LoxP, water.
The frequency of Ki67-positive mammary epithelial cells in C57Bl/6 controls treated with water (WT, water) is also presented. *, p<0.05 as compared with WT, water; **, p<0.01 as compared with WT, water; a, p<0.05 as compared with LoxP, water; b, p<0.01 as compared with LoxP, water. […] This finding is significant because Ki67 is a cancer antigen that is found in growing, dividing cells, but is absent in the resting phase of cell growth. Accordingly, Ki67 is viewed as a good tumor cell marker.

In a further test the target is IGF-I receptor (Homo sapiens, UniProt P08069). The settings on record: cited from earlier work.
Chain of IGF-I receptor (P08069 31-1367, species assumed): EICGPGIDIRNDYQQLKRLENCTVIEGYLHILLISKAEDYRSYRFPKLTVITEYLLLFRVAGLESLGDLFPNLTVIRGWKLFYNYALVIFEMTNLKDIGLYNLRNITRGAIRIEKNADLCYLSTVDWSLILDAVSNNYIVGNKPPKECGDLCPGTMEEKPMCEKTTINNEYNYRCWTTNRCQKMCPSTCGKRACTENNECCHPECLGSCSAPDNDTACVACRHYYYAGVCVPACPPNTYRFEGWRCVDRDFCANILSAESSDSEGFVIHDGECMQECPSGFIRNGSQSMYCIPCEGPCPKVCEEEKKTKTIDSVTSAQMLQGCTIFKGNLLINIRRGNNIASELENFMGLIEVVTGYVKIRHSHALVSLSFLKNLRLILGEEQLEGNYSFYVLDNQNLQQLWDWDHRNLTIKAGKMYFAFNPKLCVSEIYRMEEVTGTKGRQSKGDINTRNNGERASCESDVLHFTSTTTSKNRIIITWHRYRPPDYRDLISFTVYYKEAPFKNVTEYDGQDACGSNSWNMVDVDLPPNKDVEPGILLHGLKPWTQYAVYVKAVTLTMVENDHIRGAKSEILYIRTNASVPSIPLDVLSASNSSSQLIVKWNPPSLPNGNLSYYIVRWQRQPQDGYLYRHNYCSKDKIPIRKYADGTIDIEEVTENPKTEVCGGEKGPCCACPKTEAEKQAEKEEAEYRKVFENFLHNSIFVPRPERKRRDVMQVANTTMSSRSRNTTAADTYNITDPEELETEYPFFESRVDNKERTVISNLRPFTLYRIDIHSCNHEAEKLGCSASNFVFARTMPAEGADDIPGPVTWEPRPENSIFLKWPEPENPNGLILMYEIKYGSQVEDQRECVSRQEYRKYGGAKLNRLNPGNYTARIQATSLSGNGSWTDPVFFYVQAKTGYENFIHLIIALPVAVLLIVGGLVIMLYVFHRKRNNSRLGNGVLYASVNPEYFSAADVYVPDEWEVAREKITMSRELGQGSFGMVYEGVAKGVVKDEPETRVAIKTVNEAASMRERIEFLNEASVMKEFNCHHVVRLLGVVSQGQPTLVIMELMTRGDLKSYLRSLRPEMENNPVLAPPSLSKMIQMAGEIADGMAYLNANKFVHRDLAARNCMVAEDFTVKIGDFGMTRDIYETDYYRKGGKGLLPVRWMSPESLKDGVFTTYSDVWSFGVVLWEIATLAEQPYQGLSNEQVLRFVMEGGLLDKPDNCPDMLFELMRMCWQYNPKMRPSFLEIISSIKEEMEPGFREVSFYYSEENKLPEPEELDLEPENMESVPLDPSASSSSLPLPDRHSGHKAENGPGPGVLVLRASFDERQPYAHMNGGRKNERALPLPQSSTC
For test [4], the system named is growth hormone and estradiol induced mammary hyperplasia. The settings on record: Kleinberg et al. 2011; cited from earlier work.
A further test concerns breast cancer. The settings on record: women with certain hyperplastic lesions of the breast; clinical evidence; cited from earlier work.
The test system of another test is somatostatin receptors. The settings on record: cited from earlier work; for somatostatin receptors bound: of the 5 somatostatin receptors.
Test [5] relates to mammary development in rats. The settings on record: Ruan et al. 2006; cited from earlier work.
Where [6] appears, read: 4 month old Brca1LoxP/Brca1LoxP females, pasireotide 10 μg/kg/h Alzet pump vs water, PQ401 intraperitoneal vs 8% ethanol/Tween 80 in PBS.

“Also recorded” adds a separate entry of the source. Starred links: 1 amine or outer side, 2 acyl side, 3 side chain; linkers in the order of their positions; H or OH if unused. Non-standard residues stand in square brackets, D forms with d. Residues, ends and D or L forms follow the SMILES beside them. Groups on a side chain read outwards from the residue. *: point of attachment. Ethylenediamine = C(CN[*:2])N[*:1]; Hyp = O=C(O)[C@@H]1C[C@@H](O)CN1; Phg = N[C@H](C(=O)O)c1ccccc1; CO = O=C([*:1])[*:2]; Bn = c1ccc(C*)cc1

`COc1ccc(Cl)cc1NC(=O)Nc1cc(C)nc2ccccc12` [PQ401]: the “phosphorylation of IGF-I receptor and its downstream mediators ERK and AKT” value in test [1] is listed as “reduced”. The “mammary gland phenotype (whole mounts, histology)” value in test [2] (setting [6]) was “dramatically reduces”. For the same molecule, the “Ki67-positive epithelial cells in the mammary glands (cell proliferation)” value in test [3] was “reduces; also recorded: significantly reduced”. Besides, the IGF-I receptor inhibition entry on IGF-I receptor is “very potent and specific”.

As to `CC/C(=C(\c1ccccc1)c1ccc(OCCN(C)C)cc1)c1ccccc1` [tamoxifen], in test [4], the “growth hormone and estradiol induced mammary hyperplasia” value is “prevent”. Further, the “prevention of the development of cancer” value in the test with breast cancer was “about 50%”.

For the molecule somatostatin-14 [SS-14], the “mammary gland phenotype (whole mounts, histology)” value in test [2] (9 month old Brca1LoxP/Brca1LoxP females, Alzet pump, vs water) is on record as “reduces”. In addition, in test [2] (nine month old LoxP animals treated for a week), the “number of HANs” value is on record as “impressive reduction”. The somatostatin receptors bound entry with somatostatin receptors is “all”.

Regarding `NCCCC[C@@H]1NC(=O)[C@@H](Cc2c[nH]c3ccccc23)NC(=O)[C@H](c2ccccc2)NC(=O)[C@@H]2C[C@@H](OC(=O)NCCN)CN2C(=O)[C@H](Cc2ccccc2)NC(=O)[C@H](Cc2ccc(OCc3ccccc3)cc2)NC1=O` [pasireotide] (cyclo([Hyp]([CO-Ethylenediamine])[Phg][dW]KY(Bn)F)), in test [1], the “phosphorylation of IGF-I receptor and its downstream mediators ERK and AKT” value is “reduced”. Also, the “width of mammary gland ducts / ductal dilatation” value in test [2] (4 month old Brca1LoxP/Brca1LoxP females) is recorded as “effective in decreasing”. Further, in test [2] (4 month old Brca1LoxP/Brca1LoxP females, listed as SOM230), the “width of mammary gland ducts / ductal dilatation” value was “significant effect on inhibiting; also recorded: significantly reduced”. Further, the “mammary gland phenotype (whole mounts, histology)” value in test [2] (setting [6]) is given as “dramatically reduces”. Further, the “formation of HANs (hyperplastic alveolar nodules)” value in test [2] (LoxP mice at 4 months of age treated with SOM230) is on record as “preventing”. Further, the number of ducts result in test [2] (affected LoxP animals, SOM230 or control vehicle for 1 week) is on record as “unchanged”. For the same molecule, the “Ki67-positive epithelial cells in the mammary glands (cell proliferation)” value in test [3] is on record as “reduces; also recorded: significantly reduced”. For the same molecule, in the test with somatostatin receptors, the “affinity for SSTR3 and/or SSTR5 receptors” value is “has affinity” and the somatostatin receptors bound is given as 4 of the 5. Also, in test [5], the “IRS-1 phosphorylation in the mammary gland (IGF-I action)” value is “reduction”, the “growth hormone secretion from the pituitary” value is reported as “inhibitory effect” and the mammary development entry is reported as “prevents”. Also, in test [4], the “efficacy compared with tamoxifen in preventing growth hormone and estradiol-induced mammary hyperplasia” value was “at least as effective as tamoxifen”; the “growth hormone and estradiol induced mammary hyperplasia” value is on record as “prevents”.
